Earlier results, collected in patent publication US10842882B2, “Amatoxin-antibody conjugates” ([…] GMBH, priority 2015, dated 2020).

Molecular target: RNA-polymerase II (Homo sapiens, UniProt P24928)
Details: amanitin/RNA-polymerase II complex, background statement

amanitin
Kd: 3 nM
